Measured values: patent publication US20070249701A1, “Cyclic amine CCR5 receptor antagonists” (TEIJIN LIMITED, priority 1999, published 2007)

Target: T1, human CCR5 (Homo sapiens, UniProt P51681)
T1 construct: expressed in transfected cells; host or cells: CHO cells
Assay: Inhibition of binding of [125I]-labeled MIP-1β to membrane fraction of CHO cells expressing human CCR5
Conditions: at a concentration of 10 μM, [125I]-MIP-1β 0.1 to 0.5 nM, read-out: inhibitory activity against binding of human MIP-1β to the membrane fraction of the cells expressing CCR5, Inhibition(%)
Experimental: Measurement of Inhibitory Activity of a Compound Against Binding of [^125I]-Labeled MIP-1β to Membrane Fraction of the Cells Expressing CCR5
To a 96-well plate made of polystyrene, were respectively added 20 μL of a solution prepared by diluting each test compound with an assay buffer (50 mM HEPES, pH 7.4, 5 mM MgCl2, 1 mM CaCl2, 0.2% BSA), 25 μL of a solution obtained by diluting [^125I]-labeled MIP-1β (NEN Life Science Products, Inc.) with the assay buffer so as to provide 0.1 to 0.5 nM and 155 μL (including 4 μg of the membrane fraction) of a suspension prepared by suspending a membrane fraction of CHO cells expressing human CCR5 (the final volume of the reaction solution: 200 μL). […]
After completing the reaction, the reaction suspension was filtered through Filtermate (Packard Instrument Co.), and the filter washed with 250 μL of a precooled washing buffer (10 mM HEPES, pH 7.4, 0.5 M NaCl) nine times. […] The radioactivity was counted using TopCount NXT (Packard Instrument Co.).
The count when 0.2 μM of human MIP-1α instead of the test compound was added was subtracted as nonspecific binding, and the count when the test compound was not added was taken as 100%. Thereby, the inhibitory activity of the test compound against binding of the human MIP-1β to the membrane fraction of the cells expressing CCR5 was calculated. […]

T1 sequence (P51681 whole entry): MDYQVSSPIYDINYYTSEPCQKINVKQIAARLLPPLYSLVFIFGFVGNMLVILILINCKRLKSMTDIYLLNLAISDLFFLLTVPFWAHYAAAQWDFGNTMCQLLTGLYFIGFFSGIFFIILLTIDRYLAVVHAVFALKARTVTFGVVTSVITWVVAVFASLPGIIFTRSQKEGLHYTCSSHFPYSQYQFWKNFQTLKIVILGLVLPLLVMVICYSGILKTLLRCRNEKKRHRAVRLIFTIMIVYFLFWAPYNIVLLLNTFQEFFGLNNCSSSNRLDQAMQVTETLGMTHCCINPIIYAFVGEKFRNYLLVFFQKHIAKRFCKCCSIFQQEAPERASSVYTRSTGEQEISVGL

inhibition at 10 µM: 20 to 50%
Compound: O=C(CNC(=O)c1cccc(SC(F)(F)F)c1)N[C@@H]1CCN(Cc2ccc(Cl)cc2)C1 [Compd. No. 1606, (R)-1-(4-chlorobenzyl)-3-[{N-(3-(trifluoromethylthio)benzoyl)glycyl}amino]pyrrolidine]
